What was measured:
CD-1 mice = assay: 24-hour inhibitory avoidance task in mice after drug-in-diet dosing; format: in vivo; settings: both doses (10 and 100 mg/kg/day in Western diet), vs vehicle control mice
Protocol: The 24-hour inhibitory avoidance task in mice is a measure of one-trial learning and memory consolidation in response to a discrete aversive event (foot-shock). Mice are first placed in an illuminated compartment of a two-compartment apparatus. Mice will naturally step through into an adjoining dark compartment, which they prefer. When the mice enter the dark they receive a mild foot-shock. To assess memory, mice are tested 24 hours later and the length of time the animal refrains from entering the dark compartment is recorded (higher latencies indicate improved memory for the aversive event).
Male CD-1 mice were obtained from Charles River, Wilmington, Mass. Mice were group-housed 10 per cage. The body weight upon arrival was 20-25 g. Food and water were available ad libitum except during experiments. […]
On the first day of testing (17 days after drug-in-diet was presented) mice were removed from the colony room in their home cage, brought to the testing room, and left undisturbed for 2 hours prior to testing initiation. […] The latency to enter the dark chamber was recorded and was the dependent variable measured for assessing memory retention (latency is defined as entry of the whole mouse; all 4 paws on the grids in the dark side, plus the tail in the chamber for 5 sec; 180 sec is maximum latency). Data were analyzed using Mann Whitney U comparisons. […]

HSD-1 = assay: Monkey ex vivo HSD1 activity (cortisone to cortisol in harvested tissue); parameters: species or system Cynomolgus Monkeys; settings: for HSD-1 ex vivo activity, Mean % Veh Control: single 10 mg/kg oral dose
Protocol: Harvested tissues (approximately 150 mg) were minced into small, 2 mm pieces in the presence of 5× volume of incubation buffer. Cortisone at final concentrations of 0, 3, 10 or 30 μM was added to each well. Cell culture plates with tissues were incubated at 37° C. for three hours. Two-hundred μL of tissue culture supernatant was then removed and spun at 1000 rpm in an Eppindorf tube, and then 100 μL of resulting supernatant was aliquotted into two tubes for LCMS analysis of cortisol.

phosphorylated CREB = assay: Phosphorylated CREB immunohistochemistry in brain after food-in-diet dosing; format: in vivo, mice; settings: 18 days food-in-diet (10 and 100 mg/kg/day)
Protocol: In vivo signaling studies were conducted to examine the biochemical pathways that may be mechanistically involved in the cognitive efficacy associated with Compound KK. An important signaling process that serves as a biochemical correlate of synaptic plasticity underlying learning and memory is the phosphorylation of CREB (c-AMP-response element binding protein), a transcription factor critical to long-term memory. To investigate the effects of Compound KK on CREB phosphorylation, CD1 mice treated and tested (data presented in FIG. 1) were given a 24-hour rest after testing before immunohistochemical procedures commenced.
Male CD-1 mice were obtained from Charles River, Wilmington, Mass. Mice were group-housed 10 per cage. The body weight upon arrival was 20-25 g. […]
Compound KK was administered via a drug-in-diet administration (100 mg/kg/day in Western diet) or (10 mg/kg/day in Western diet). […] Immuno-reactivity (IR) was quantified using an image analysis system (Leica, Quantimet 500) that determined number and/or area of peroxidase substrate-positive stained neurons from digitized photomicrographs according to a pixel gray level empirically determined prior to analysis. Overall statistical significance was determined using a one-way ANOVA, with Dunnett's post hoc analyses used to determine significance (p<0.05 was considered significant).

serotonin (5-HT) levels = assay: Microdialysis, cortical/hippocampal serotonin levels; format: in vivo, Sprague Dawley rats; settings: single administration 30 mg/kg, p.o.
Protocol: (§1) Microdialysis studies (resting or challenging conditions) in freely moving, male Sprague Dawley rats (Janvier, 295-315 g, n=5-8/treatment group) were performed using stereotactically instrumented microdialysis probes (CMA/12-14-2): mPFC, hippocampus. Aliquots of the same microdialysate fractions (6 before, and 9-12 after compound administration) were analyzed either for acetylcholine or for serotonin by HPLC and electrochemical detection.
This is a feature shared by marketed anti-depressive drugs and might indicate the potential use for 11β-HSD1 inhibitors as antidepressants/anxiolytic drugs. These findings remain to be confirmed by (i) investigating 11β-HSD1 inhibitors from different chemotype(s) in selected microdialysis studies and/or (ii) in animal models of depression/anxiety.

ACh release = assay: Microdialysis, cortical/hippocampal acetylcholine levels; format: in vivo, Sprague Dawley rats; settings: single administration 30 mg/kg, p.o.
Protocol: as §1

Fisher rats = assay: Rat EEG REM sleep parameters; format: in vivo; settings: 30 mg/kg, 3 times at 24, 26, and 0.1 hours before measurement; 8 h EEG
Protocol: EEG of Fisher rats (n=8/group) with chronically implanted supracortical EEG-electrodes were analyzed for an 8 h period. Intraindividual drug-induced changes of power spectra were analyzed. For REM sleep the number of REM episodes, latency to first REM, and total REM time was analyzed.

Sprague Dawley rats = assay: Short-term social recognition memory in the rat; format: in vivo; settings: 30 mg/kg po at 24, 18 and 1 hour before first juvenile exposure, vs vehicle control rats
Protocol: Social memory and social cognition are impaired in disorders such as Alzheimer's disease and schizophrenia. One of the more commonly used preclinical models of social recognition memory is short-term social recognition in the rat, a model of short-term memory based on the recognition of a juvenile rat by an adult rat. […] The juvenile rat is then removed and reintroduced 120 min later, and interactive behavior of the adult rat is again monitored. If memory has been lost over the interval between trials 1 and 2, the extent of interaction is equal (expressed as a ratio of investigation time of T1/T2) and the ratio will be close to 1. However, if the adult remembers the juvenile, the investigation ratio declines. To test for non-specific effects, a novel juvenile is introduced at 120 minutes instead of the familiar juvenile. […]
Rats were pre-dosed po at 24, 18 and 1 hour before first juvenile rat exposure with vehicle, or Compound MM (30 mg/kg). […] The time the adult spent exploring (sniffing, grooming, close following) the juvenile during this test session was recorded, and defined as the first investigation duration. […] Data were analyzed using a one-way analysis of variance. If there was a significant effect, subsequent post hoc significance was determined using Dunnett's multiple comparison testing (p<0.05 was regarded as significant).

Row | SMILES | memory retention (Mean Transfer Latency), FIG. 1 (CD-1 mice) | ex vivo inhibition of HSD1 in monkey brain, fat and liver (HSD-1; 2.5 and 16 hours following a single oral 10 mg/kg dose) | HSD-1 ex vivo activity, Mean % Veh Control (HSD-1; Cerebral Cortex, 16 hours) [%] | HSD-1 ex vivo activity, Mean % Veh Control (HSD-1; Hippocampus, 16 hours) [%] | HSD-1 ex vivo activity, Mean % Veh Control (HSD-1; Liver, 2.5 hours) [%] | HSD-1 ex vivo activity, Mean % Veh Control (HSD-1; Liver, 16 hours) [%] | HSD-1 ex vivo activity, Mean % Veh Control (HSD-1; Mesenteric Fat, 2.5 hours) [%] | HSD-1 ex vivo activity, Mean % Veh Control (HSD-1; Mesenteric Fat, 16 hours) [%] | phosphorylated CREB, FIG. 2 (phosphorylated CREB) | serotonin (5-HT) levels in the medial prefrontal cortex and in the hippocampus (serotonin (5-HT) levels) | ACh release under resting conditions (ACh release; acute) | ACh release under challenging conditions (novel cage), cortex and hippocampus (ACh release) | increase of latency to first REM (Fisher rats) [%] | reduction of REM time (Fisher rats) [%] | reduction of number of REM sleep episodes (Fisher rats) [%] | reduction of total sleep time (Fisher rats) [%] | short-term memory retention, FIG. 4 (Sprague Dawley rats)
1 | CC(C)(Oc1ccc(F)cc1Cl)C(=O)NC1C2CC3CC1CC(S(C)(=O)=O)(C3)C2 (centres unmarked) [Compound KK, 2-(2-Chloro-4-fluorophenoxy)-2-methyl-N-[(E)-5-(methylsulfonyl)-2-adamantyl]propanamide] | significant improvement in memory retention | potent ex vivo inhibition | 30 | 42 | 38 | 9 | 90 | 50 | increase in phosphorylated CREB |  |  |  |  |  |  |  | 
2 | O=C(CN1CCN(c2ccc(C(F)(F)F)cn2)CC1)NC1C2CC3CC1CC(O)(C3)C2 (centres unmarked) [Compound MM, N-[(E)-5-Hydroxy-2-adamantyl]-2-{-4-[5-(trifluoromethyl)pyridin-2-yl]piperazin-1-yl}acetamide] |  |  |  |  |  |  |  |  |  | long-lasting increase | did not change ACh release | did not induce any further stimulation of ACh release | 62 | 23 | 16 | 10 | significant improvement in short-term memory retention

— patent publication US8993632B2, “Inhibitors of the 11-beta-hydroxysteroid dehydrogenase type 1 enzyme” (AbbVie Inc., priority 2005, dated 2015)
